Values of other authors as cited in patent publication US11534424B2, “Compounds and methods for treatment of primary biliary cholangitis” (Arena Pharmaceuticals, Inc., priority 2017, dated 2022).

Columns and labels:
[1] = chronic administration
[2] = tested on: experimental autoimmune encephalomyelitis (EAE); conditions: murine EAE, relative to vehicle
[3] = tested on: collagen induced arthritis (CIA); conditions: CIA rats

liver enzyme elevation [1]	Structure (SMILES)	also measured
liver enzyme elevation has been seen	CC(C)Oc1ccc(-c2nc(-c3cccc4c3CC[C@@H]4NCCO)no2)cc1C#N [ozanimod]	
liver enzyme elevation has been seen	CCc1cc(/C(C)=N/OCc2ccc(C3CCCCC3)c(C(F)(F)F)c2)ccc1CN1CC(C(=O)O)C1 [siponimod]	
liver enzyme elevation has been seen	CCCCCCCCc1ccc(CCC(N)(CO)CO)cc1 [fingolimod]	
	O=C(O)C[C@H]1CCc2c1[nH]c1ccc(OCc3ccc(C4CCCC4)c(C(F)(F)F)c3)cc21 [Compound 1, (R)-2-(7-(4-cyclopentyl-3-(trifluoromethyl)benzyloxy)-1,2,3,4-tetrahydrocyclopenta[b]indol-3-yl)acetic acid]	disease course, therapeutic administration ([2]; administered day 18 to day 37, similar to fingolimod): reverse the disease relative to vehicle; onset and severity of disease, prophylactic administration ([2]; up to day 25): prevented the onset and severity of disease relative to vehicle up to day 25; histological parameters in the knees and ankles [3]: Improvement in histological parameters
liver enzyme elevation has been seen	CCC/N=C1\S/C(=C\c2ccc(OC[C@H](O)CO)c(Cl)c2)C(=O)N1c1ccccc1C [ponesimod]	
liver enzyme elevation has been seen	CC(C)Oc1ncc(-c2nc(-c3cccc4c3ccn4CCCC(=O)O)no2)cc1Cl [GSK2018682]	
